Experiments:
barnyardgrass [1] = assay: Test B flooded paddy test; type: in vivo, Echinochloa crus-galli; conditions: Flood, 250 g ai/ha, 0 to 100 scale where 0 is no effect and 100 is complete control
In short: (§1)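 Scores from 0 (no effect) to 100 (complete control) are visual comparisons with controls, taken 13 to 15 days after compound was applied into floodwater 3 cm deep around 2-leaf plants.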

morningglory [2] = assay: Test A preemergence; type: in vivo, Ipomoea spp.
In short: (§2)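 Pre- and postemergence greenhouse screen. Soil: loam + sand. Spray carrier: solvent mixture, non-phytotoxic, with surfactant. Post timing at 1–2 leaves, height 2–10 cm. Readout: visual injury on a 0–100 scale roughly 10 days after application, untreated plants as reference.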

wild oat = assay: Test C postemergence; type: in vivo, Avena fatua
In short: (§3)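 Injury was assessed visually against controls 13 to 15 days after application, with 0 meaning no effect and 100 full control; missing entries are shown as a dash. Preemergence sprays hit seeded loam–sand soil, postemergence sprays hit 1- to 4-leaf plants.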

Heteranthera limosa = assay: Test B flooded paddy test; type: in vivo; conditions: Flood, 250 g ai/ha, 0 to 100 scale where 0 is no effect and 100 is complete control
In short: as §1

wheat = assay: Test A postemergence; type: in vivo, Triticum aestivum
In short: as §2

johnsongrass = assay: Test C postemergence; type: in vivo, Sorghum halepense
In short: as §3

corn = assay: Test A preemergence; type: in vivo, Zea mays
In short: as §2

blackgrass = assay: Test C postemergence; type: in vivo, Alopecurus myosuroides
In short: as §3

large (Lg) crabgrass [3] = assay: Test A preemergence; type: in vivo, Digitaria sanguinalis
In short: as §2

barnyardgrass [4] = assay: Test A preemergence; type: in vivo, Echinochloa crus-galli
In short: as §2

morningglory [5] = assay: Test A postemergence; type: in vivo, Ipomoea spp.
In short: as §2

large (Lg) crabgrass [6] = assay: Test A postemergence; type: in vivo, Digitaria sanguinalis
In short: as §2

[7] = 8 g ai/ha, postemergence, 0 is no effect, 100 is complete control
[8] = 16 g ai/ha, postemergence, 0 is no effect, 100 is complete control
[9] = 1000 g ai/ha, 0 to 100 scale, 0 no effect, 100 complete control
[10] = 31 g ai/ha, postemergence, visual rating, scale 0 to 100 (0 no effect, 100 complete control), 13 to 15 days
[11] = 125 g ai/ha, 0 to 100 scale where 0 is no effect and 100 is complete control

For `CC(=NO)c1cn(-c2c(Br)cccc2Oc2ncc(Cl)cn2)nn1` [Compound 115], the “Plant response rating, Barnyardgrass” value (barnyardgrass [1]) was 0, the “Morningglory plant response rating” value (morningglory [2]; 1000 g ai/ha, 0 to 100 scale, 0 no effect, 100 complete control, approx. 10 days) was 50 and the “Plant response rating (0 to 100), Oat, Wild” value (wild oat; [7]) was 0. For the same compound, the “Plant response rating (0 to 100), Oat, Wild” value (wild oat; [8]) was 0, the “Plant response rating, Ducksalad” value (Heteranthera limosa) was 70 and the “Plant response rating, Wheat” value (wheat; [9]) was 90. For the same compound, the “Plant response rating (0 to 100), Johnsongrass” value (johnsongrass; [7]) was 5, the “Plant response rating (0 to 100), Johnsongrass” value (johnsongrass; [8]) was 5 and the “Plant response rating, Corn” value (corn; [9]) was 60. The “Plant response rating (0 to 100), Blackgrass” value (blackgrass; 4 g ai/ha, postemergence, 0 is no effect, 100 is complete control) was 0, the “Plant response rating (0 to 100), Blackgrass” value (blackgrass; [7]) was 0 and the “Plant response rating (0 to 100), Blackgrass” value (blackgrass; [8]) was 0. For the same compound, the “Plant response rating, Blackgrass” value (blackgrass; Postemergence, 31 g ai/ha, scale 0 to 100 (0 no effect, 100 complete control), 13 to 15 days) was 5, the “Plant response rating, Crabgrass, Large” value (large (Lg) crabgrass [3]; [9]) was 100 and the “Plant response rating, Barnyardgrass” value (barnyardgrass [4]; [9]) was 100. The “Plant response rating, Morningglory” value (morningglory [5]; [9]) was 100 and the “Plant response rating, Crabgrass, Large” value (large (Lg) crabgrass [6]; [9]) was 90.
In the case of `Fc1cccc(Oc2ncc(Cl)cn2)c1-n1cc(Br)cn1` [Compound 178, 2-[2-(4-bromo-1H-pyrazol-1-yl)-3-fluorophenoxy]-5-chloropyrimidine], the pest or weed control at 250 g/ha (barnyardgrass [1]; Echinochloa crus-galli, read-out: Plant response rating, Barnyardgrass) is reported as 0%, the “Morningglory plant response rating (0 to 100 scale)” value (morningglory [2]; 125 g ai/ha) is reported as 10 and the pest or weed control at 500 g/ha (morningglory [2]; Ipomoea, pre-emergence, 240 h, 500 g ai/ha, 0 to 100 scale where 0 is no effect and 100 is complete control, read-out: Morningglory plant response rating) is reported as 90%. For the same compound, the “Oat, Wild plant response rating” value (wild oat; [10]) was 0, the pest or weed control at 16 g/ha (wild oat; Avena fatua, post-emergence, 16 g ai/ha, postemergence, 0 is no effect, 100 is complete control, read-out: Plant response rating (0 to 100), Oat, Wild) was 0% and the pest or weed control at 125 g/ha (wild oat; Avena fatua, post-emergence, 125 g ai/ha, postemergence, visual rating, scale 0 to 100 (0 no effect, 100 complete control), read-out: Plant response rating, Oat, Wild) was 30%. For the same compound, the pest or weed control at 62 g/ha (wild oat; Avena fatua, post-emergence, Postemergence, 62 g ai/ha, scale 0 to 100 (0 no effect, 100 complete control), read-out: Plant response rating, Oat, Wild) was 10%, the pest or weed control at 250 g/ha (Heteranthera limosa; Heteranthera limosa, read-out: Plant response rating, Ducksalad) was 0% and the plant injury at 125 g/ha (wheat; Triticum aestivum, post-emergence, 240 h, 125 g ai/ha, 0 to 100 scale where 0 is no effect and 100 is complete control, read-out: Wheat plant response rating) was 40%. The plant injury at 500 g/ha (wheat; Triticum aestivum, post-emergence, 240 h, 500 g ai/ha, 0 to 100 scale where 0 is no effect and 100 is complete control, read-out: Plant response rating, Wheat) was 80%, the “Johnsongrass plant response rating” value (johnsongrass; [10]) was 5 and the pest or weed control at 16 g/ha (johnsongrass; Sorghum halepense, post-emergence, 16 g ai/ha, postemergence, 0 is no effect, 100 is complete control, read-out: Plant response rating (0 to 100), Johnsongrass) was 0%. It also gave a pest or weed control at 125 g/ha (johnsongrass; Sorghum halepense, post-emergence, 125 g ai/ha, postemergence, visual rating, scale 0 to 100 (0 no effect, 100 complete control), read-out: Plant response rating, Johnsongrass) of 35%, a pest or weed control at 62 g/ha (johnsongrass; Sorghum halepense, post-emergence, Postemergence, 62 g ai/ha, scale 0 to 100 (0 no effect, 100 complete control), read-out: Plant response rating, Johnsongrass) of 15% and a Corn plant response rating (crop injury, 0 = no effect, 100 = complete kill) at 125 g/ha (corn; Zea mays, pre-emergence, 240 h, 125 g ai/ha, 0 to 100 scale where 0 is no effect and 100 is complete control) of 0%. It also gave a plant injury at 500 g/ha (corn; Zea mays, pre-emergence, 240 h, 500 g ai/ha, 0 to 100 scale where 0 is no effect and 100 is complete control, read-out: Corn plant response rating) of 30%, a pest or weed control at 16 g/ha (blackgrass; Alopecurus myosuroides, post-emergence, 16 g ai/ha, postemergence, 0 is no effect, 100 is complete control, read-out: Plant response rating (0 to 100), Blackgrass) of 0% and a pest or weed control at 31 g/ha (blackgrass; Alopecurus myosuroides, post-emergence, 31 g ai/ha, postemergence, visual rating, scale 0 to 100 (0 no effect, 100 complete control), 13 to 15 days, read-out: Blackgrass plant response rating) of 5%. It also gave a pest or weed control at 125 g/ha (blackgrass; Alopecurus myosuroides, post-emergence, 125 g ai/ha, postemergence, visual rating, scale 0 to 100 (0 no effect, 100 complete control), read-out: Plant response rating, Blackgrass) of 60%, a pest or weed control at 62 g/ha (blackgrass; Alopecurus myosuroides, post-emergence, Postemergence, 62 g ai/ha, scale 0 to 100 (0 no effect, 100 complete control), read-out: Plant response rating, Blackgrass) of 20% and a pest or weed control at 125 g/ha (large (Lg) crabgrass [3]; Digitaria sanguinalis, pre-emergence, 240 h, 125 g ai/ha, 0 to 100 scale where 0 is no effect and 100 is complete control, read-out: Plant response rating, Crabgrass, Large) of 100%. It also gave a pest or weed control at 500 g/ha (large (Lg) crabgrass [3]; Digitaria sanguinalis, pre-emergence, 240 h, 500 g ai/ha, 0 to 100 scale where 0 is no effect and 100 is complete control, read-out: Crabgrass, Large plant response rating) of 100%, a pest or weed control at 125 g/ha (barnyardgrass [4]; Echinochloa crus-galli, pre-emergence, 240 h, 125 g ai/ha, 0 to 100 scale where 0 is no effect and 100 is complete control, read-out: Plant response rating, Barnyardgrass) of 90% and a pest or weed control at 500 g/ha (barnyardgrass [4]; Echinochloa crus-galli, pre-emergence, 240 h, 500 g ai/ha, 0 to 100 scale where 0 is no effect and 100 is complete control, read-out: Barnyardgrass plant response rating) of 100%. For the same compound, the “Morningglory plant response rating” value (morningglory [5]; [11]) was 70, the pest or weed control at 500 g/ha (morningglory [5]; Ipomoea, post-emergence, 240 h, 500 g ai/ha, 0 to 100 scale where 0 is no effect and 100 is complete control, read-out: Plant response rating, Morningglory) was 100% and the “Crabgrass, Large plant response rating” value (large (Lg) crabgrass [6]; [11]) was 90. It also gave a pest or weed control at 500 g/ha (large (Lg) crabgrass [6]; Digitaria sanguinalis, post-emergence, 240 h, 500 g ai/ha, 0 to 100 scale where 0 is no effect and 100 is complete control, read-out: Plant response rating, Crabgrass, Large) of 100%.

From patent US9695155B2, “Herbicidal substituted pyrimidinyloxy benzene compounds” (E. I. DU PONT DE NEMOURS AND COMPANY, priority 2013, dated 2017)
